# Test results: US20150266878A1, “NOVEL BI-RING PHENYL-PYRIDINES/PYRAZINES FOR THE TREATMENT OF CANCER” (HOFFMANN-LA ROCHE INC., priority 2012, published 2015)
# Experiments:
# AGS (gastric cancer) = test: In vitro cell proliferation assay (CCK-8), AGS; format: cell-based; conditions: Homo sapiens, AGS cells, 72 hours
# Description: (§1) In Vitro Cell Proliferation Assay:
# (§2) Cells were seeded on 96-well plates at 5×10^3 cells per well and precultured for 24 hours. The cells were treated with serial diluted compounds and cultured for 72 hours. Then all media was discarded and after that, 100 μL 1:10 (v/v) Cell Counting Kit-8 (CCK-8)-culture media solution was added to the wells. Plate was developed for 2 hours in an incubator, and the absorbance was measured at 450 nm wavelengths with SpectraMAX190 (MDS, Sunnyvale, Calif.). The inhibition rate (IR) of the tested compounds was determined with following formula: IR (%)=(ODDMSO−ODcompound)/ODDMSO×100%. The concentration corresponding to 50% IR (IC50) was determined with plot curve of IR against tested compound concentrations with SoftMax Pro.
# CDK8/Cyclin C = biological target: T1, CDK8/Cyclin C (Homo sapiens, UniProt P49336); test: CDK8/Cyclin C LANCE TR-FRET kinase assay; format: biochemical; conditions: CDK8/Cyclin C 10 nM, ATP 24 μM, Ulight-GS peptide 80 nM, 37° C. 30 mins
# T1 construct: purchased Invitrogen PV4402
# Source text: CDK8/Cyclin C LANCE TR-FRET Kinase Assay:
# The biological activity of the compounds of the invention can be determined using the assay described below.
# CDK8/Cyclin C protein was obtained from Invitrogen, cat #PV4402. ULight-Glycogen Synthase (Ulight-GS) peptide with sequence PASVPPSPSLSRHSSPHQ(pS)ED, and Europium-anti-phospho Glycogen Synthase (Ser641) [Eu-anti-P-GS (Ser641)] were obtained from Perkin Elmer, cat #TRF0131-M and cat #TRF0220. Adenosine-5′-triphosphate (ATP) was obtained from Invitrogen, cat #PV3227.
# A mixture of (1) a compound of formula I, (2) substrate [Ulight-GS peptide (80 nM) and ATP (24 μM)], and (3) CDK8/Cyclin C (10 nM) in reaction buffer (50 mM Hepes, pH7.0, 10 mM MgCl2, 1 mM EGTA, 0.2 mg/mL BSA, 0.8 mM DTT) were incubated at 37° C. for 30 mins. Then, [Eu-anti-P-GS (Ser641)] (1.5 nM) was added. Following incubation at room temperature for 30 mins, the TR-FRET signals were detected using Envision reader (Ex 340 nm, Em 615 nm and 665 nm) from Perkin Elmer. The reactivity in percentage of inhibition or dose response was analyzed with GraphPad Prism 5 (GraphPad Software).
# [1] = tested on: SW-837 (colorectal cancer); test: In vitro cell proliferation assay (CCK-8), SW-837; format: cell-based; conditions: Homo sapiens, SW837, SW-837 cells, 72 hours
# Description: as §1, §2
# [2] = tested on: HCT116 (colorectal cancer); test: In vitro cell proliferation assay (CCK-8), HCT116; format: cell-based; conditions: Homo sapiens, HCT-116, HCT116 cells, 72 hours
# Description: as §1, §2
# T1 sequence (P49336 whole entry): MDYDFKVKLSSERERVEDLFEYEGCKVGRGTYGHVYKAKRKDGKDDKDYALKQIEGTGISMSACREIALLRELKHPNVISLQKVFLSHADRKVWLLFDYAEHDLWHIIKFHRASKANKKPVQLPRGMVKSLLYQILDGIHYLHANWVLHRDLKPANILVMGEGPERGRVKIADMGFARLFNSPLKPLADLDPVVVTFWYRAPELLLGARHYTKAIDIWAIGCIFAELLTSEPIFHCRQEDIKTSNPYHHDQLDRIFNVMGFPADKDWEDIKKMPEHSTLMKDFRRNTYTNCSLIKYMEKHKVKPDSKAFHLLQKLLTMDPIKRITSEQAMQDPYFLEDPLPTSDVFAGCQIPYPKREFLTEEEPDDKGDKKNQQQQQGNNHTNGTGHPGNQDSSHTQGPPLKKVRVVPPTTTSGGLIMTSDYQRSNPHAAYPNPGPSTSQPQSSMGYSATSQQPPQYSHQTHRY
# T1 sequence (P24863 whole entry partner): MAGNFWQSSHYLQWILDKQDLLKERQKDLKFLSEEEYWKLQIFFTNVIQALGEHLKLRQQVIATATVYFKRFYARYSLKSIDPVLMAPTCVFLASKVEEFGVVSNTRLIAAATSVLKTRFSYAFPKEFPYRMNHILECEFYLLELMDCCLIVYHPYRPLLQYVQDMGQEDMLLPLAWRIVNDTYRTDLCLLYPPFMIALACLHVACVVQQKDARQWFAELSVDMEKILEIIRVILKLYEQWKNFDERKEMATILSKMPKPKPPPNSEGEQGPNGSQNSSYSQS
IC50 (CDK8/Cyclin C) [nM],SMILES,further results
3.5,"O=C1Cc2cc(-c3cncc(N[C@@H](CO)c4ccccc4)c3)ccc2N1 [Example 1, 5-[5-((R)-2-Hydroxy-1-phenyl-ethylamino)-pyridin-3-yl]-1,3-dihydro-indol-2-one]",IC50 (AGS (gastric cancer)): 0.65 µM; IC50 [1]: 2.3 µM; IC50 [2]: 0.66 µM
0.2,"OC[C@H](Nc1cncc(-c2ccc3[nH]ncc3c2)c1)c1ccccc1 [Example 16, (R)-2-[5-(1H-Indazol-5-yl)-pyridin-3-ylamino]-2-phenyl-ethanol]",IC50 (AGS (gastric cancer)): 0.033 µM; IC50 [1]: 0.091 µM; IC50 [2]: 0.037 µM
813,"CC1(C)C(=O)Nc2ccc(-c3cncc(NC(C(N)=O)c4ccccc4)c3)cc21 (stereo not shown) [Example 32, 2-[5-(3,3-Dimethyl-2-oxo-2,3-dihydro-1H-indol-5-yl)-pyridin-3-ylamino]-2-phenyl-acetamide]",–
2.3,"NC(=O)[C@H](Nc1cncc(-c2ccc3[nH]nc(Cl)c3c2)c1)c1ccccc1 [Example 59, (R)-2-[5-(3-Chloro-1H-indazol-5-yl)-pyridin-3-ylamino]-2-phenyl-acetamide]",–
9.7,"OC[C@H](Nc1cncc(-c2ccc3[nH]ncc3n2)c1)c1ccccc1 [Example 27, (R)-2-Phenyl-2-[5-(1H-pyrazolo[4,3-b]pyridin-5-yl)-pyridin-3-ylamino]-ethanol]",–
9.2,"NC(=O)[C@@H](Nc1cncc(-c2ccc3[nH]nc(Cl)c3c2)c1)c1ccccc1 [Example 60, (S)-2-[5-(3-Chloro-1H-indazol-5-yl)-pyridin-3-ylamino]-2-phenyl-acetamide]",–
1.1,"OC[C@H](Nc1cncc(-c2cnc3[nH]ncc3c2)c1)c1ccccc1 [Example 24, (R)-2-Phenyl-2-[5-(1H-pyrazolo[3,4-b]pyridin-5-yl)-pyridin-3-ylamino]-ethanol]",–
3.1,"CC(C)C(=O)NC[C@H](Nc1cncc(-c2ccc3[nH]nc(F)c3c2)c1)c1ccccc1 [Example 44, N-{(R)-2-[5-(3-Fluoro-1H-indazol-5-yl)-pyridin-3-ylamino]-2-phenyl-ethyl}-isobutyramide]",–
37.6,"O=C1Nc2ccc(-c3cncc(N[C@@H](CO)c4ccccc4)c3)cc2C1(F)F [Example 8, 3,3-Difluoro-5-[5-((R)-2-hydroxy-1-phenyl-ethylamino)-pyridin-3-yl]-1,3-dihydro-indol-2-one]",–
3.4,"NC(=O)C(Nc1cncc(-c2ccc3[nH]ncc3c2)c1)c1ccccc1 (stereo not shown) [Example 37, 2-[5-(1H-Indazol-5-yl)-pyridin-3-ylamino]-2-phenyl-acetamide]",–
294,"NC(=O)C(Nc1cncc(-c2ccc3c(c2)CNC3=O)c1)c1ccccc1 (stereo not drawn) [Example 31, 2-[5-(l-Oxo-2,3-dihydro-1H-isoindol-5-yl)-pyridin-3-ylamino]-2-phenyl-acetamide]",–
1,"OC[C@H](Nc1cncc(-c2ccc3[nH]nc(Cl)c3c2)c1)c1ccccc1 [Example 28, (R)-2-[5-(3-Chloro-1H-indazol-5-yl)-pyridin-3-ylamino]-2-phenyl-ethanol]",–
0.5,"O=C1Cc2cc(-c3cncc(N[C@@H](CO)c4ccccc4)c3)c(F)cc2N1 [Example 10, 6-Fluoro-5-[5-((R)-2-hydroxy-1-phenyl-ethylamino)-pyridin-3-yl]-1,3-dihydro-indol-2-one]",–
81.3,"O=C1Cc2nc(-c3cncc(N[C@@H](CO)c4ccccc4)c3)ccc2N1 [Example 9, 5-[5-((R)-2-Hydroxy-1-phenyl-ethylamino)-pyridin-3-yl]-1,3-dihydro-pyrrolo[3,2-b]pyridin-2-one]",–
22.7,"CC(=O)NC[C@H](Nc1cncc(-c2ccc3c(c2)CC(=O)N3)c1)c1ccccc1 [Example 30, N-{(R)-2-[5-(2-Oxo-2,3-dihydro-1H-indol-5-yl)-pyridin-3-ylamino]-2-phenyl-ethyl}-acetamide]",–
6,"Cc1n[nH]c2ccc(-c3cncc(N[C@@H](CNC(=O)c4ccccc4)c4ccccc4)c3)cc12 [Example 58, N-{(R)-2-[5-(3-Methyl-1H-indazol-5-yl)-pyridin-3-ylamino]-2-phenyl-ethyl}-benzamide]",–
15,"OCCNC[C@H](Nc1cncc(-c2ccc3[nH]nc(F)c3c2)c1)c1ccccc1 [Example 47, 2-{(R)-2-[5-(3-Fluoro-1H-indazol-5-yl)-pyridin-3-ylamino]-2-phenyl-ethylamino}-ethanol]",–
0.5,"Cc1n[nH]c2ccc(-c3cncc(N[C@@H](CO)c4ccccc4)c3)cc12 [Example 20, (R)-2-[5-(3-Methyl-1H-indazol-5-yl)-pyridin-3-ylamino]-2-phenyl-ethanol]",–
2510,"NC(=O)C(Nc1cncc(-c2ccc3c(c2)OCCO3)c1)c1ccccc1 (stereo not shown) [Example 36, 2-[5-(2,3-Dihydro-benzo[1,4]dioxin-6-yl)-pyridin-3-ylamino]-2-phenyl-acetamide]",–
9.5,"COCCNC[C@H](Nc1cncc(-c2ccc3[nH]nc(C)c3c2)c1)c1ccccc1 [Example 55, (R)-N^2-(2-Methoxy-ethyl)-N^1-[5-(3-methyl-1H-indazol-5-yl)-pyridin-3-yl]-1-phenyl-ethane-1,2-diamine]",–
559,"NC(=O)C(Nc1cncc(-c2ccc3c(c2)OCO3)c1)c1ccccc1 (stereo not shown) [Example 35, 2-(5-Benzo[1,3]dioxol-5-yl-pyridin-3-ylamino)-2-phenyl-acetamide]",–
2.3,"CCC(=O)NC[C@H](Nc1cncc(-c2ccc3[nH]nc(F)c3c2)c1)c1ccccc1 [Example 43, N-{(R)-2-[5-(3-Fluoro-1H-indazol-5-yl)-pyridin-3-ylamino]-2-phenyl-ethyl}-propionamide]",–
